Data reported in patent publication US10618913B2, “Macrocycles as PDE1 inhibitors” (H. Lundbeck A/S, priority 2017, dated 2020).
Read-outs that look alike come from different tables or passages of the source.

Columns and labels:
Format in all cases: biochemical
PDE1C = PDE1C (Homo sapiens (Human), UniProt Q14123); assay: PDE1 inhibition assay (SPA, tritium labelled cAMP), PDE1C; conditions: Table 1, compounds of the invention; 15 nM tritium labelled cAMP
Protocol: Reactions were initiated by addition of the cyclic nucleotide substrate, and reactions were allowed to proceed for 1 hr at room temperature before being terminated through mixing with 20 μL (0.2 mg) yttrium silicate SPA beads (PerkinElmer). The beads were allowed to settle for 1 hr in the dark before the plates were counted in a Wallac 1450 Microbeta counter.

PDE1A = PDE1A (Homo sapiens (Human), UniProt P54750); assay: PDE1 inhibition assay (SPA, tritium labelled cAMP), PDE1A; conditions: Table 1, compounds of the invention; 15 nM tritium labelled cAMP
Protocol: (§1) Reactions were initiated by addition of the cyclic nucleotide substrate, and reactions were allowed to proceed for 1 hr at room temperature before being terminated through mixing with 20 μL (0.2 mg) yttrium silicate SPA beads (PerkinElmer).

PDE1B = PDE1B (Homo sapiens (Human), UniProt Q01064); assay: PDE1 inhibition assay (SPA, tritium labelled cAMP), PDE1B
Protocol: as §1

[1] = Table 1, compounds of the invention, 15 nM tritium labelled cAMP, read-out: PDE1B, IC50

Sequence of PDE1C (Q14123 whole entry): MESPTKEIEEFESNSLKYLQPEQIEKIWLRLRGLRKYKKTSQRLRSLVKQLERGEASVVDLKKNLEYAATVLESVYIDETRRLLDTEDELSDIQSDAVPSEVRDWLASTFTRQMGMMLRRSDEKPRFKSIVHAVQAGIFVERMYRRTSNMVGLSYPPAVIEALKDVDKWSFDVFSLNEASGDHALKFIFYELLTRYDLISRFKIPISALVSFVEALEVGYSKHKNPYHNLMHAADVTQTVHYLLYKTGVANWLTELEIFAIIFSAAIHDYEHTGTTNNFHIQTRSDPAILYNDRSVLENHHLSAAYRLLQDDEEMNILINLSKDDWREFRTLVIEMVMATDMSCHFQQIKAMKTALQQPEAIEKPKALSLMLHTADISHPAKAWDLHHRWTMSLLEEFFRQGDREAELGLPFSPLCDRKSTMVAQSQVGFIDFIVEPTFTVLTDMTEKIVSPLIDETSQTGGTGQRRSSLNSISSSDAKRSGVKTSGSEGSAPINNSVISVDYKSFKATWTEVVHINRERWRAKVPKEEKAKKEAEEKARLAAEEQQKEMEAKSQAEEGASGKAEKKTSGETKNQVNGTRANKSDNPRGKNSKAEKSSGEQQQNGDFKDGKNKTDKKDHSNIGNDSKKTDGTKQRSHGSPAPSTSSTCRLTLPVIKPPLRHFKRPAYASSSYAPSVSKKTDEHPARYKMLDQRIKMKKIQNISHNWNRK
Sequence of PDE1A (P54750 whole entry): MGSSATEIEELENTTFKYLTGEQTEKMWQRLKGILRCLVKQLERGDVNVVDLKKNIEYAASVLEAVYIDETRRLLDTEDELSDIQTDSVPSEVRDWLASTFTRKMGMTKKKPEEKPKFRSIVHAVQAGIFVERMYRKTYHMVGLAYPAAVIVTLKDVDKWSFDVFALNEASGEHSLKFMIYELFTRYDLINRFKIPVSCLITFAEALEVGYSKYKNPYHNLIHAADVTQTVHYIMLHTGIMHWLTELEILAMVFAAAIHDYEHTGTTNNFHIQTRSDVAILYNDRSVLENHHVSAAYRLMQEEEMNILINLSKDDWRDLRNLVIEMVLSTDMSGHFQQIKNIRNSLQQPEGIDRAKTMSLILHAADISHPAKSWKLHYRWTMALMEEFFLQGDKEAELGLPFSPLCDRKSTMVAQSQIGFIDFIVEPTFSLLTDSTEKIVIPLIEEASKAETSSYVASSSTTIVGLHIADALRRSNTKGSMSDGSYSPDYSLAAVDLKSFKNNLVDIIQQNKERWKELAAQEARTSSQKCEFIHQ
Sequence of PDE1B (Q01064 whole entry): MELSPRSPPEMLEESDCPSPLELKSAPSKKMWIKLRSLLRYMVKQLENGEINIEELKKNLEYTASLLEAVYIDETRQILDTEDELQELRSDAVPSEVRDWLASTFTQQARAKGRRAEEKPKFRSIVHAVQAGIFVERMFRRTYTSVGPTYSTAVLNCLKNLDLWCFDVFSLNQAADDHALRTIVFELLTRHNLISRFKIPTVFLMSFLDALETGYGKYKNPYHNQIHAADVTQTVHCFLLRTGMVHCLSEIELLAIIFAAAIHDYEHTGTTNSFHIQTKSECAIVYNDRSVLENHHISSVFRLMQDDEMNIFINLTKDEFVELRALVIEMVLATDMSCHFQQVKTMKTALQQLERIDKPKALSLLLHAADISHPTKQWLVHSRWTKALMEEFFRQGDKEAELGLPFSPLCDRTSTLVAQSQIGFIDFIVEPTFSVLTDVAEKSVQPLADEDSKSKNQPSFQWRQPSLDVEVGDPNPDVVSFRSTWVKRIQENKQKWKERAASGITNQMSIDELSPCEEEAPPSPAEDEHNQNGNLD

Row | Compound | IC50 (PDE1C) [nM] | IC50 (PDE1A) [nM] | IC50 (PDE1B) [nM] | IC50 (PDE1B; [1]) [nM] | inhibition at 10 µM (PDE1B; read-out: PDE1B, inhibition at 10 μM) [%]
1 | Cc1nn(C(C)C)c2c3cc(nc12)-c1cccnc1OCCCCOc1ncccc1CN3 [Example 1, 2^1-isopropyl-2^3-methyl-2^1H-6,11-dioxa-3-aza-2(5,7)-pyrazolo[4,3-b]pyridina-1,5(3,2)-dipyridinacycloundecaphane] | 20 | 12 | 1.4 | – | –
2 | Cc1nn(C(C)C)c2c3cc(nc12)-c1cccnc1OCCCCCOc1ncccc1CN3 [Example 2, 2^1-isopropyl-2^3-methyl-2^1H-6,12-dioxa-3-aza-2(5,7)-pyrazolo[4,3-b]pyridina-1,5(3,2)-dipyridinacyclododecaphane] | 54 | 18 | – | 1.5 | –
3 | Cc1nn(C(C)C)c2c3cc(nc12)-c1cccnc1OCCCOc1ncccc1CN3 [Example 3, 2^1-isopropyl-2^3-methyl-2^1H-6,10-dioxa-3-aza-2(5,7)-pyrazolo[4,3-b]pyridina-1,5(3,2)-dipyridinacyclodecaphane] | 69 | 38 | – | 4.2 | –
4 | Cc1nn(C(C)C)c2c3cc(nc12)-c1cccnc1OCCOCCOc1ncccc1CN3 [Example 4, 2^1-isopropyl-2^3-methyl-2^1H-6,9,12-trioxa-3-aza-2(5,7)-pyrazolo[4,3-b]pyridina-1,5(3,2)-dipyridinacyclododecaphane] | 16 | 2.6 | – | 0.54 | –
5 | Cc1nn(C(C)C)c2c3cc(nc12)-c1cccnc1OCCCCCn1nccc1CN3 [Example 5, 2^1-isopropyl-2^3-methyl-2^1H,5^1H-11-oxa-3-aza-2(5,7)-pyrazolo[4,3-b]pyridina-1(3,2)-pyridina-5(5,1)-pyrazolacycloundecaphane] | 80 | 25 | – | 4.7 | –
6 | Cc1nn(C(C)C)c2c3cc(nc12)-c1cccnc1OCCCCOc1cccnc1CN3 [Example 6, 2^1-isopropyl-2^3-methyl-2^1H-6,11-dioxa-3-aza-2(5,7)-pyrazolo[4,3-b]pyridina-1(3,2),5(2,3)-dipyridinacycloundecaphane] | 3.9 | 0.47 | – | 0.27 | –
7 | Cc1nn(C)c2c3cc(nc12)-c1cccnc1OCCCCOc1ncccc1CN3 [Example 7, 2^1,2^3-dimethyl-2^1H-6,11-dioxa-3-aza-2(5,7)-pyrazolo[4,3-b]pyridina-1,5(3,2)-dipyridinacycloundecaphane] | 497 | 428 | – | 95 | –
8 | CCn1nc(C)c2nc3cc(c21)NCc1cccnc1OCCCCOc1ncccc1-3 [Example 8, 2^1-ethyl-2^3-methyl-2^1H-6,11-dioxa-3-aza-2(5,7)-pyrazolo[4,3-b]pyridina-1,5(3,2)-dipyridinacycloundecaphane] | 412 | 256 | – | 36 | –
9 | Cc1nn(C(C)C)c2c3cc(nc12)-c1cccnc1OCCCCn1nccc1CN3 [Example 9, 2^1-isopropyl-2^3-methyl-2^1H,5^1H-10-oxa-3-aza-2(5,7)-pyrazolo[4,3-b]pyridina-1(3,2)-pyridina-5(5,1)-pyrazolacyclodecaphane] | 56 | 53 | – | 15 | –
10 | Cc1nn(C(C)C)c2c3cc(nc12)-c1cccnc1OCCCCOc1nccnc1CN3 [Example 10, 2^1-isopropyl-2^3-methyl-2^1H-6,11-dioxa-3-aza-2(5,7)-pyrazolo[4,3-b]pyridina-5(2,3)-pyrazina-1(3,2)-pyridinacycloundecaphane] | 17 | 10 | – | – | > 99
